Test results as given in ChEMBL document CHEMBL5038631, “2-(2-Hydroxyethyl)piperazine derivatives as potent human carbonic anhydrase inhibitors: Synthesis, enzyme inhibition, computational studies and antiglaucoma activity” (Eur J Med Chem, 2022).
pKi: −log10 of the molar value.

Target: Carbonic anhydrase 9 (Homo sapiens, UniProt Q16790)
Test: Inhibition of human CA9 incubated for 15 mins prior to testing by phenol red dye based stopped flow CO2 hydration assay

Compound | pKi
CN1CCN(C(=O)c2ccc(S(N)(=O)=O)cc2)CC1CCO (racemic) | 8.17
NS(=O)(=O)c1ccc(C(=O)N2CCN(Cc3ccccc3)[C@H](CCO)C2)cc1 | 7.22
NS(=O)(=O)c1ccc(C(=O)N2CCNC[C@H]2CCO)cc1 | 7.22
CN1CCN(C(=O)c2ccc(S(N)(=O)=O)cc2)C[C@H]1CCO | 8.17
CN1CCN(C(=O)c2ccc(S(N)(=O)=O)cc2)[C@H](CCO)C1 | 7.60
NS(=O)(=O)c1ccc(C(=O)N2CCN(Cc3ccccc3)C(CCO)C2)cc1 (racemic) | 7.54
NS(=O)(=O)c1ccc(C(=O)N2CCN(Cc3ccccc3)C[C@H]2CCO)cc1 | 7.45
NS(=O)(=O)c1ccc(C(=O)N2CCNC[C@@H]2CCO)cc1 | 7.28

Second part, the molecule after the results:

pKi | Compound
7.83 | NS(=O)(=O)c1ccc(C(=O)N2CCN(Cc3ccccc3)C[C@@H]2CCO)cc1
7.46 | NS(=O)(=O)c1ccc(C(=O)N2CCNC(CCO)C2)cc1 (racemic)
7.51 | CN1CCN(C(=O)c2ccc(S(N)(=O)=O)cc2)[C@@H](CCO)C1
7.27 | NS(=O)(=O)c1ccc(C(=O)N2CCN[C@H](CCO)C2)cc1
